Test results taken from patent US20070282007A1, “TREATMENT OF PAIN DISORDERS WITH trans 4-(3,4-DICHLOROPHENYL)-1,2,3,4-TETRAHYDRO-1-NAPHTHALENAMINE AND ITS FORMAMIDE” (SEPRACOR INC., priority 2006, published 2007).
pIC50, pKi: −log10 of the molar value.

Experiments:
NE transporter = biological target: T1, NE transporter (Homo sapiens, UniProt P23975); test: Radioligand binding assay, NE transporter ([3H]nisoxetine displacement); conditions: human recombinant; [3H]nisoxetine 0.3 nM; read-out: Ki, Norepinephrine (NE) transporter
T1 construct: expressed in transfected cells
Protocol: (§1) The assays measured the affinity of the two compounds for transporters of the monoamines 5-HT, NE and DA. […] The transporters were human recombinant proteins expressed in mammalian cells. Binding to the 5-HT transporter was assessed by evaluating displacement of [^3H]paroxetine (0.1 nM). […] Binding to the NE transporter was assessed by evaluating displacement of [^3H]nisoxetine (0.3 nM).

DA transporter = biological target: T2, DA transporter (Homo sapiens, UniProt Q01959); test: Radioligand binding assay, DA transporter ([3H]GBR 12935 displacement); conditions: human recombinant; [3H]GBR 12935 0.5 nM; read-out: Ki, Dopamine (DA) transporter
T2 construct: expressed in transfected cells
Protocol: as §1

[1] = biological target: T3, Norepinephrine (NE) uptake (Rattus norvegicus, UniProt Q63380); test: Functional uptake of radiolabeled NE into synaptosomes from rat hypothalamus; type: biochemical
T3 construct: from tissue; host or cells: synaptosomes from rat hypothalamus
Protocol: The 5-HT and NE assays were performed essentially as outlined in Perovic S. & Müller W. E. G., Arzneim.-Forsch.

[2] = biological target: T4, recombinant human Norepinephrine (NE) transporter (Homo sapiens, UniProt P23975); test: Functional uptake of NE into cells expressing recombinant human transporters; type: cell-based; conditions: read-out: IC50 inhibition of functional uptake in human transporters, Norepinephrine (NE)
T4 construct: expressed in transfected cells

B2 = B2 (Homo sapiens, UniProt P30411); test: In vitro radioligand binding assay, B2
H2 = H2 (Homo sapiens, UniProt P25021); test: In vitro radioligand binding assay, H2; conditions: read-out: Ki, H2
M2 = M2 (Homo sapiens, UniProt P08172); test: In vitro radioligand binding assay, M2
5-HT1B = 5-HT1B (Homo sapiens, UniProt P28222); test: In vitro radioligand binding assay, 5-HT1B
[3] = biological target: Ca^2+ Channel Verapamil Site; test: In vitro radioligand binding assay, Ca2+ channel verapamil site
Na^+ Channel Site 2 = test: In vitro radioligand binding assay, Na+ channel site 2
M3 receptor = biological target: T5, M3 receptor (Cavia porcellus, UniProt H0W1Z3); test: Carbachol-induced contraction of the isolated Guinea pig ileum
T5 construct: from tissue; host or cells: isolated guinea pig ileum

Long-Evans derived rats = test: Spontaneous locomotor activity study; type: in vivo, rat; conditions: mean ± SEM
Protocol: The effects on locomotor activity were studied in Long-Evans derived rats following protocol outlined in Dews P., Br. J. Pharmacol., 8: 46 (1953).
This effect was still evident 2 hours following drug administration. On the basis of these studies, CNS effects and long duration of action may be anticipated at sufficient clinical doses.

hERG channel = hERG channel (Homo sapiens, UniProt Q12809); test: hERG channel current in stably transfected HEK293 cells
Protocol: Studies were conducted to determine effects on IKr, the rapidly activating delayed rectifier cardiac potassium current in the human heart. […] In this assay system, HERG channel current serves as a surrogate for IKr.

rats [4] = test: Formalin paw test in the rat (late phase), flinches counted; type: in vivo
Protocol: Rats were given an intraplantar injection of 5% formalin (50 μl) into the posterior left paw. […] The number of flinches was counted for 15 minutes, beginning 20 minutes after injection of formalin. Eight rats were studied per group. The test was performed blind. […] Data were analyzed by comparing treated groups with vehicle control using unpaired Mann-Whitney U tests.

rats [5] = test: Formalin test, second test with Automated Nociception Analyzer; type: in vivo, rat; conditions: automated detection; for Number of Flinches, Acute Phase (Mean ± SEM): 0-10 minutes after formalin; for Number of Flinches, Late Phase (Mean ± SEM): 10-60 minutes after formalin
Protocol: In a second test, flinching behaviors were measured for 90 minutes after formalin injection using an automated detection system. […] This device used a magnetic detection system to measure paw movements, called “flinches”. Small metal bands were attached to the left hind paw of rats just before placement into individual circular test chambers 30 minutes prior to formalin injection. […] In addition to duloxetine, morphine (6 mg/kg, subcutaneously) was used as a comparator substance. Animals were treated with morphine 30 minutes prior to the formalin injection. To initiate the experiment, the rats were injected with formalin subcutaneously on the dorsal surface of the left hind paw and placed in the test chambers. The instrument subsequently recorded rapid foot movements counted in one minute epochs.

Dopamine (DA) uptake = Dopamine (DA) uptake (Rattus norvegicus, UniProt P23977); test: biochemical
[6] = 5 mg/kg p.o. 60 min before the test
[7] = 10 mg/kg p.o. 60 min before the test
[8] = 15 mg/kg p.o. 60 min before the test

T5 sequence (H0W1Z3 1-590): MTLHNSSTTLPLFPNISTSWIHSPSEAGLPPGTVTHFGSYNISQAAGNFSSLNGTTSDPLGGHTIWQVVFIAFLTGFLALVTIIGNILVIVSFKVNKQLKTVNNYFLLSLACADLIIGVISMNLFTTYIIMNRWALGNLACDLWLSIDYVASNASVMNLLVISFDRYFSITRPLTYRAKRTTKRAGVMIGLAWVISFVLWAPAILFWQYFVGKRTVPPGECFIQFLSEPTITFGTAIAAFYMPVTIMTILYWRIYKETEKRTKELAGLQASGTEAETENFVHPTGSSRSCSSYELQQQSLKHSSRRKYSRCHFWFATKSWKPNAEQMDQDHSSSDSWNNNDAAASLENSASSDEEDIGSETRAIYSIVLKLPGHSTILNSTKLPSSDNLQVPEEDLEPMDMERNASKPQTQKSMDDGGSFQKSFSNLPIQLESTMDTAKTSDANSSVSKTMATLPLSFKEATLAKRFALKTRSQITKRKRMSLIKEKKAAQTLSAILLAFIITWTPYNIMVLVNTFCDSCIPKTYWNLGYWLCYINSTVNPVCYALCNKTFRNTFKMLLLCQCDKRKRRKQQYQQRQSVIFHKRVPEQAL
Sequence of 5-HT1B (P28222 whole entry, species assumed): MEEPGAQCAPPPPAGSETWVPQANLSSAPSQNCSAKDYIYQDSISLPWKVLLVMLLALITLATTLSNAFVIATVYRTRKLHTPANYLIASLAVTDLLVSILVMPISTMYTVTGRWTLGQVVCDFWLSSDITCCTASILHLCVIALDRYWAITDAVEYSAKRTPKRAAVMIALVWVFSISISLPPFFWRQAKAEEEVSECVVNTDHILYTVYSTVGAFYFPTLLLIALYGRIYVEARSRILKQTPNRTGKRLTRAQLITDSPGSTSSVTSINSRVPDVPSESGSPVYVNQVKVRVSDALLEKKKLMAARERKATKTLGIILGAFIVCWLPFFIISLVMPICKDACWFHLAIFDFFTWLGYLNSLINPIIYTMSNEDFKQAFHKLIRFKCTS
T4 sequence (P23975 whole entry): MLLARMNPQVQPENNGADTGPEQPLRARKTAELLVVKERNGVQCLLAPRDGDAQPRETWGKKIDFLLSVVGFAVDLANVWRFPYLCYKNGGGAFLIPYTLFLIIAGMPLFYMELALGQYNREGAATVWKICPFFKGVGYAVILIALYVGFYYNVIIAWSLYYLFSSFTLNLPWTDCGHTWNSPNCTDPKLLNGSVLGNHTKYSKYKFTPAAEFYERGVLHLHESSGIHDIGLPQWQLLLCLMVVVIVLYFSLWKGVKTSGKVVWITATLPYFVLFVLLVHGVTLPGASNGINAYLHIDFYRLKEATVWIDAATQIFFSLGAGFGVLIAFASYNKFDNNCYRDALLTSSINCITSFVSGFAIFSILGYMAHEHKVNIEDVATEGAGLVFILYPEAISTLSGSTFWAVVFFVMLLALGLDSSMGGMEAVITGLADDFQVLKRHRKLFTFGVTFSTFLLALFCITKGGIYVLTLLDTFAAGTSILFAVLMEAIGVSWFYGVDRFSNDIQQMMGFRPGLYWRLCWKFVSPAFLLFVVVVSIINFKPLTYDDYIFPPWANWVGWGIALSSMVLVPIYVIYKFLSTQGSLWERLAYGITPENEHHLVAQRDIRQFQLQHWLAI
T1 sequence (P23975 whole entry): as above
Sequence of M2 (P08172 whole entry): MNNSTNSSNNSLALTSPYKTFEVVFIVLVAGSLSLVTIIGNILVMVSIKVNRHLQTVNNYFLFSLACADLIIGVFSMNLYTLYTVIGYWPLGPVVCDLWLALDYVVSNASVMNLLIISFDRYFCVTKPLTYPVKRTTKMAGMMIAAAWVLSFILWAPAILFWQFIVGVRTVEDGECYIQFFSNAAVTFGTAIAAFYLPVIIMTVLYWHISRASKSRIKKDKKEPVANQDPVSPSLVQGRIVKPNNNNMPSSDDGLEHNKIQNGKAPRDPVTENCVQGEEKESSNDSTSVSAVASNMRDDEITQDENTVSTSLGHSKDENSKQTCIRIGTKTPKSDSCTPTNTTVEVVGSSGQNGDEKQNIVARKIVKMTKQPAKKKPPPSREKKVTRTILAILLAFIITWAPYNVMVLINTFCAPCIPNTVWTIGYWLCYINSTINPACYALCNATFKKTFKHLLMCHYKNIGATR
Sequence of hERG channel (Q12809 whole entry): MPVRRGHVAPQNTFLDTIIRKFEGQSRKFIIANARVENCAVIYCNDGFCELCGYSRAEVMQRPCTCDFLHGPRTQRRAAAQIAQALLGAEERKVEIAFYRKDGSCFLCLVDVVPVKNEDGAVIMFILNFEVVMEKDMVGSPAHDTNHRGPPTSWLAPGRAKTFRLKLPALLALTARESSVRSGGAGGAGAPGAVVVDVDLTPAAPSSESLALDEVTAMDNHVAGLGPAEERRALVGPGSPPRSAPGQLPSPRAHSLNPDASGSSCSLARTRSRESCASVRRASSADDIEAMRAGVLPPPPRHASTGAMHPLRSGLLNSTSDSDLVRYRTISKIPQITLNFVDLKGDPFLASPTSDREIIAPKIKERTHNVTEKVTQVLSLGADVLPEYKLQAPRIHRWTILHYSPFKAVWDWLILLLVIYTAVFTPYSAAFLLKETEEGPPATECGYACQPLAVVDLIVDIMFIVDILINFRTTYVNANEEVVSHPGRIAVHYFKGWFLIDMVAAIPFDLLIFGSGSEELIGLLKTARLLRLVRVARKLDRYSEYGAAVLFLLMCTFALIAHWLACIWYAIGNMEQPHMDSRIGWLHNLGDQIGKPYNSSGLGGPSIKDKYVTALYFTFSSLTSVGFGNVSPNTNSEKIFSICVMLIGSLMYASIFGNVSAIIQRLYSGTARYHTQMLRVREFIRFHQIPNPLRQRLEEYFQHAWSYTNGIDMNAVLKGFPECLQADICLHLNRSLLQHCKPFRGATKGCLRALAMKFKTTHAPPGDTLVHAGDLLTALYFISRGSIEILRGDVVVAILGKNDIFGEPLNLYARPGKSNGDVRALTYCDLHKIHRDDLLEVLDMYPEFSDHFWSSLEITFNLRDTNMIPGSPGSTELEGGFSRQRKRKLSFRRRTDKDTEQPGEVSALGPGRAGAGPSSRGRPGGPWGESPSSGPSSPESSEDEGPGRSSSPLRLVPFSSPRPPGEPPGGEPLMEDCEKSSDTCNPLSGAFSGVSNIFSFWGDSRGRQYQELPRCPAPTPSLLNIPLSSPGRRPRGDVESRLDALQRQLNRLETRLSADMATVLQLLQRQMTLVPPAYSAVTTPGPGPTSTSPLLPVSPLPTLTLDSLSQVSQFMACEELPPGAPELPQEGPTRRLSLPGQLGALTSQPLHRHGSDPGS
T2 sequence (Q01959 whole entry): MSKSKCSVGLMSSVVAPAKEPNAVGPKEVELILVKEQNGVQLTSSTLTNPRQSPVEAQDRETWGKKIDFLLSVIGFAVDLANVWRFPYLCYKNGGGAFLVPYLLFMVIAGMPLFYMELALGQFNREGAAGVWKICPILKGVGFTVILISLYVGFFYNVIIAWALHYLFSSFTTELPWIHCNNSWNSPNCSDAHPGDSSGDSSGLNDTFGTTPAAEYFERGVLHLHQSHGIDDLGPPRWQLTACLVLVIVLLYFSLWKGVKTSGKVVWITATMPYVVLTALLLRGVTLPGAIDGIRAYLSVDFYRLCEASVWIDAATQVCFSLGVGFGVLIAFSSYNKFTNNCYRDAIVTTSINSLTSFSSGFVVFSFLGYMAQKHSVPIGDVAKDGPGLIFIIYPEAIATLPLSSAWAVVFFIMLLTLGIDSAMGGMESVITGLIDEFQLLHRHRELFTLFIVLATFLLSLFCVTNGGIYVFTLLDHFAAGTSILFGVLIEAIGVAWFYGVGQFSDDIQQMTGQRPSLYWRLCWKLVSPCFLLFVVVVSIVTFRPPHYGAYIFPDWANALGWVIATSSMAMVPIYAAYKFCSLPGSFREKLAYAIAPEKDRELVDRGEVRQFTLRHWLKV
Sequence of Dopamine (DA) uptake (P23977 whole entry): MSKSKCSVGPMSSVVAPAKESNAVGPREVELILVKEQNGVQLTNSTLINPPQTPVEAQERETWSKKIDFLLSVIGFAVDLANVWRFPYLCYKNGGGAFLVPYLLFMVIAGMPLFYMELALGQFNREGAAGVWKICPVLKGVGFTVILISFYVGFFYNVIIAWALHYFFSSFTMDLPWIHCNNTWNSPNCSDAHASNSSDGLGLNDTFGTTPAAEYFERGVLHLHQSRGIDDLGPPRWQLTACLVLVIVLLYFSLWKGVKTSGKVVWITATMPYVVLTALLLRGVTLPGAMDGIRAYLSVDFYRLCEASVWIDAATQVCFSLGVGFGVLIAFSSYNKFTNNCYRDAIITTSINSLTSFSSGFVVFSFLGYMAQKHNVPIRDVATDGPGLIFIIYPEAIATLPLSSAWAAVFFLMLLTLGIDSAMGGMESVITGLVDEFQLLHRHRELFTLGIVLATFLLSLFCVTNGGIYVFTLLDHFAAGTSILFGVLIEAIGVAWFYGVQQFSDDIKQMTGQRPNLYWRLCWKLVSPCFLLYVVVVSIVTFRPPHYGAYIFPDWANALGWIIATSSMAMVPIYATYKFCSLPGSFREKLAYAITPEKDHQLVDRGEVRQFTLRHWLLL
Sequence of H2 (P25021 whole entry): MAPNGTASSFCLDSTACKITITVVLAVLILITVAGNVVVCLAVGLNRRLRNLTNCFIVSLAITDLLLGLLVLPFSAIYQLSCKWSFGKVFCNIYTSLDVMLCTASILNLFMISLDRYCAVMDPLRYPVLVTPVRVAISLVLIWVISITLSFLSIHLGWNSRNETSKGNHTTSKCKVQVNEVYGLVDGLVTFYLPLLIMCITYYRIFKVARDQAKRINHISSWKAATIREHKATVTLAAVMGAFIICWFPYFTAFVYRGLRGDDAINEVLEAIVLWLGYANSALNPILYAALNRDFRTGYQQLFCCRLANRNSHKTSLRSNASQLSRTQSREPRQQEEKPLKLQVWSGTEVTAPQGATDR

N[C@@H]1CC[C@@H](c2ccc(Cl)c(Cl)c2)c2ccccc21 [Compound P, (1R,4S)-trans 4-(3,4-dichlorophenyl)-1,2,3,4-tetrahydro-1-napthalenamine]
pKi (NE transporter): 7.70
pKi (DA transporter): 7.80
pIC50 [1]: 8.02
pIC50 [2]: 7.81
pKi (B2): 5.82
pKi (H2): 5.40
pKi (M2): 5.30
pKi (5-HT1B): 6.00
pKi [3]: 6.00
pKi (Na^+ Channel Site 2): 6.00
pIC50 (M3 receptor; duplicate samples, read-out: IC50 for inhibition of carbachol-induced contraction of the Guinea Pig ileum): 5.05
M3 agonist effect on isolated Guinea pig ileum (M3 receptor; graded concentrations, compound alone): no an M3 agonist
Total Activity Counts, 71–80 Minutes (Long-Evans derived rats; 2.5 mg/kg single i.p. dose): 49 ± 6
Total Activity Counts, 91–100 Minutes (Long-Evans derived rats; 2.5 mg/kg single i.p. dose): 54 ± 9
Total Activity Counts, 111–120 Minutes (Long-Evans derived rats; 2.5 mg/kg single i.p. dose): 34 ± 9
Total Activity Counts, Total 1st Hour (Long-Evans derived rats; 2.5 mg/kg single i.p. dose): 577 ± 54^1
Total Activity Counts, Total 2nd Hour (Long-Evans derived rats; 2.5 mg/kg single i.p. dose): 257 ± 36
Total Activity Counts, 71–80 Minutes (Long-Evans derived rats; 5.0 mg/kg single i.p. dose): 38 ± 3
Total Activity Counts, 91–100 Minutes (Long-Evans derived rats; 5.0 mg/kg single i.p. dose): 26 ± 26
Total Activity Counts, 111–120 Minutes (Long-Evans derived rats; 5.0 mg/kg single i.p. dose): 23 ± 14
Total Activity Counts, Total 1st Hour (Long-Evans derived rats; 5.0 mg/kg single i.p. dose): 444 ± 91
Total Activity Counts, Total 2nd Hour (Long-Evans derived rats; 5.0 mg/kg single i.p. dose): 160 ± 32
pIC50 (hERG channel): 6.10
NUMBER OF FLINCHES (20 to 35 min after formalin), mean ± s.e.m. (rats [4]; [6]): 89.0 ± 18.4NS
NUMBER OF FLINCHES, % change from control (rats [4]; [6]): 0%
NUMBER OF FLINCHES (20 to 35 min after formalin), mean ± s.e.m. (rats [4]; [7]): 76.4 ± 15.2NS
NUMBER OF FLINCHES, % change from control (rats [4]; [7]): −15%
NUMBER OF FLINCHES (20 to 35 min after formalin), mean ± s.e.m. (rats [4]; [8]): 44.6 ± 13.6
NUMBER OF FLINCHES, % change from control (rats [4]; [8]): −50%
Number of Flinches, Acute Phase (Mean ± SEM) (rats [5]; 5 mg/kg PO): 194 ± 33
Number of Flinches, Late Phase (Mean ± SEM) (rats [5]; 5 mg/kg PO): 1263 ± 181
Number of Flinches, Acute Phase (Mean ± SEM) (rats [5]; 10 mg/kg PO): 143 ± 27
Number of Flinches, Late Phase (Mean ± SEM) (rats [5]; 10 mg/kg PO): 1679 ± 163
Number of Flinches, Acute Phase (Mean ± SEM) (rats [5]; 15 mg/kg PO): 212 ± 40
Number of Flinches, Late Phase (Mean ± SEM) (rats [5]; 15 mg/kg PO): 2236 ± 153
pIC50 (Dopamine (DA) uptake): 8.19
